Experimental data from ChEMBL document CHEMBL1201862, “PubChem BioAssay data set” (2004).
Activity calls are given as the source filed them.

Key:
[1] = test system: Streptococcus sp. 'group A'; assay: growth inhibition of control SK(-) GAS strain, dose response, counter-screen for streptokinase expression inhibitor project, luminescence, kanamycin, BacTiterGlo, confirmation (AID 1900); type: functional, organism-based
Streptokinase A = biological target: T1, Streptokinase A (Streptococcus pyogenes serotype M1, UniProt P10520); assay: S. pyogenes streptokinase expression inhibitors, potency, dose response, plasminogen activation absorbance, OD405 (AID 1914); type: functional, Streptococcus pyogenes M1 GAS;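 note: secreted streptokinase activity via plasminogen activation per viability signal from cell pellet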
T1 sequence (P10520 whole entry): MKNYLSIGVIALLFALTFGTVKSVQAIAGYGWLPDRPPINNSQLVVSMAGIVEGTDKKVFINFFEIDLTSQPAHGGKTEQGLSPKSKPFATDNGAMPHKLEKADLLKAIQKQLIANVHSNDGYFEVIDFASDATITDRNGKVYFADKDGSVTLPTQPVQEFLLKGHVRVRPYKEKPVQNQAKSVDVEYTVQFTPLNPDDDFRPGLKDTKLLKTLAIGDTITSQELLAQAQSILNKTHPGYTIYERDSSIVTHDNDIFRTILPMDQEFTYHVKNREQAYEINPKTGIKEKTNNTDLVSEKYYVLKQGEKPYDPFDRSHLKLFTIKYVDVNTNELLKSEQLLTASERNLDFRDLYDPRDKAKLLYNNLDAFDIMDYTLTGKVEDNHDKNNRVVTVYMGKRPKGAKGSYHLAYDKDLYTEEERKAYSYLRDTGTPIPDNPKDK

Streptococcus = assay: Group A Streptococcus viability loss, dose response, counter-screen for streptokinase expression inhibitor project, luminescence, BacTiterGlo (AID 1915); type: functional, organism-based;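 note: potency for reduction of bacterial viability or growth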
[2] = biological target: DNA (cytosine-5)-methyltransferase 1 (Homo sapiens, UniProt P26358); assay: DNMT1 methyltransferase inhibitors, confirmation, biochemical, fluorescent molecular beacon (AID 602386); type: functional
[3] = biological target: Adenosylmethionine-8-amino-7-oxononanoate aminotransferase (Mycobacterium tuberculosis, UniProt P9WQ81); assay: Mycobacterium tuberculosis BioA enzyme inhibitor Measured in Biochemical System Using Plate Reader - 2163-02_Inhibitor_Dose_CherryPick_Activity.; type: functional, Mycobacterium tuberculosis UT205
Trypsin = Trypsin (Sus scrofa, UniProt P00761); assay: porcine trypsin inhibitors, dose response, selectivity assay for Rce1 protease inhibitor project, biochemical, quenched peptide fluorescence, cherry-pick (AID 488789)
CAAX prenyl protease 2 [4] = biological target: T2, CAAX prenyl protease 2 (Saccharomyces cerevisiae S288c, UniProt Q03530); type: biochemical
T2 sequence (Q03530 whole entry): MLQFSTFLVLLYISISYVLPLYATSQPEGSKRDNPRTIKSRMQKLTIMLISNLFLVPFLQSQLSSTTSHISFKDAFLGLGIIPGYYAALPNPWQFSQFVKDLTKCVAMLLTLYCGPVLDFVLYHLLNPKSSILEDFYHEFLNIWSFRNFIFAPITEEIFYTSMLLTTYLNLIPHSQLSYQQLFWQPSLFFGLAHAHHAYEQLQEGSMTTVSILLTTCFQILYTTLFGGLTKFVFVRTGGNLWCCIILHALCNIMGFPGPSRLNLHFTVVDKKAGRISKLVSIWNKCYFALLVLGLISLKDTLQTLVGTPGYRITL

CAAX prenyl protease 2 [5] = biological target: T3, CAAX prenyl protease 2 (Homo sapiens, UniProt Q9Y256); assay: human Rce1 protease inhibitors, dose response, biochemical, yeast membranes, quenched-peptide fluorescence, cherry-pick (AID 588849)
T3 sequence (Q9Y256 whole entry): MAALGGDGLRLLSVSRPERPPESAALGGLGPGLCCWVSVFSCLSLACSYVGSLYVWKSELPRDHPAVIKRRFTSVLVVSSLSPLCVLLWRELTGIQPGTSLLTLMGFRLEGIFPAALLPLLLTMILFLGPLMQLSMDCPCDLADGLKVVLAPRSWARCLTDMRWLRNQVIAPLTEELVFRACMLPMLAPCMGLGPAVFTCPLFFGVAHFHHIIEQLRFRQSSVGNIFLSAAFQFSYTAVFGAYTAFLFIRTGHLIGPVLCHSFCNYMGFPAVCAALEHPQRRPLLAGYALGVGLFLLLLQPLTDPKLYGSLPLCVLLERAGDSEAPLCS

[6] = biological target: Beta-2 adrenergic receptor (Homo sapiens, UniProt P07550); assay: beta2AR agonists driving receptor internalization, dose response, cell-based, FAP fluorogen, flow cytometry, cherry pick 1 (AID 588763); type: functional
Caspase-3 = biological target: T4, Caspase-3 (Homo sapiens, UniProt P42574); type: functional;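 note: Dose-response selectivity test against caspase-3 for candidate inhibitors of sentrin-specific proteases (SENPs)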
T4 sequence (P42574 whole entry): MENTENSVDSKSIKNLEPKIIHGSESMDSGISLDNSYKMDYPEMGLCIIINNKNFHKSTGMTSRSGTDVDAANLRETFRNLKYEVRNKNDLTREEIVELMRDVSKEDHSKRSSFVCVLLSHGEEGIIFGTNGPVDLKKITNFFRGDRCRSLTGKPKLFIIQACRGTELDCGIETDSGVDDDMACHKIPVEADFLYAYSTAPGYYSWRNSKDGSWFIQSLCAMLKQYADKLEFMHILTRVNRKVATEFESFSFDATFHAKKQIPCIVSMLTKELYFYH

[7] = biological target: T5, Sentrin-specific protease 7 (Homo sapiens, UniProt Q9BQF6); type: functional;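 note: Luminescence-based dose-response confirmation of ultra-high-throughput screening hits, measuring inhibition of SENP7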
T5 sequence (Q9BQF6 whole entry): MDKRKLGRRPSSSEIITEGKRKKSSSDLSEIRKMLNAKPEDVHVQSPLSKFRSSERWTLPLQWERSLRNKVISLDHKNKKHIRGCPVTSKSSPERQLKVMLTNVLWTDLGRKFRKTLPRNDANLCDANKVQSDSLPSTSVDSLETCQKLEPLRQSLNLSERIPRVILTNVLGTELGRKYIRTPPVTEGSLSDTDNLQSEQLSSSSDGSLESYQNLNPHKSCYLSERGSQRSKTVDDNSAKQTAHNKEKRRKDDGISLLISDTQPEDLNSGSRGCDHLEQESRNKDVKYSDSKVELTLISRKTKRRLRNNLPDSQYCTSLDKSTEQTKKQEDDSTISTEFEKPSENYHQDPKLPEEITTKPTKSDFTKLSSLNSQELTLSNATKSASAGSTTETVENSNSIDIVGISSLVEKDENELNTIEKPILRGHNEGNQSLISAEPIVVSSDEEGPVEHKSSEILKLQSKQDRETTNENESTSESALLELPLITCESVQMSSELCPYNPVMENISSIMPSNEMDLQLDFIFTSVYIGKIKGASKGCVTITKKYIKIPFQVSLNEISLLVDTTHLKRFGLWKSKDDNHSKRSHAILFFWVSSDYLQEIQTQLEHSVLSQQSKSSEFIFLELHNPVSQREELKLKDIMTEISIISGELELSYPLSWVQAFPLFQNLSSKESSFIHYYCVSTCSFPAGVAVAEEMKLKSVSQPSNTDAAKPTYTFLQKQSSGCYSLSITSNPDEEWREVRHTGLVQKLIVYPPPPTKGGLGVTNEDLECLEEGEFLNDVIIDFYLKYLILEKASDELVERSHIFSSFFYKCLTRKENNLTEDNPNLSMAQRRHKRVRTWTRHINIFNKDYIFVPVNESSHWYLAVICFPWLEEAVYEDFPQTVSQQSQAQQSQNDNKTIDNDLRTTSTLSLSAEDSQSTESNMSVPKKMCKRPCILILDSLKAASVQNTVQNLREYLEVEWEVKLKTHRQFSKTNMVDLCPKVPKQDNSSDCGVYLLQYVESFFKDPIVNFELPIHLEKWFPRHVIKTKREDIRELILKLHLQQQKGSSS

[8] = biological target: T6, Sentrin-specific protease 6 (Homo sapiens, UniProt Q9GZR1); type: functional;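 note: Luminescence-based dose-response confirmatory assay of SENP6 inhibition, following up an ultra-high-throughput screen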
T6 sequence (Q9GZR1 whole entry): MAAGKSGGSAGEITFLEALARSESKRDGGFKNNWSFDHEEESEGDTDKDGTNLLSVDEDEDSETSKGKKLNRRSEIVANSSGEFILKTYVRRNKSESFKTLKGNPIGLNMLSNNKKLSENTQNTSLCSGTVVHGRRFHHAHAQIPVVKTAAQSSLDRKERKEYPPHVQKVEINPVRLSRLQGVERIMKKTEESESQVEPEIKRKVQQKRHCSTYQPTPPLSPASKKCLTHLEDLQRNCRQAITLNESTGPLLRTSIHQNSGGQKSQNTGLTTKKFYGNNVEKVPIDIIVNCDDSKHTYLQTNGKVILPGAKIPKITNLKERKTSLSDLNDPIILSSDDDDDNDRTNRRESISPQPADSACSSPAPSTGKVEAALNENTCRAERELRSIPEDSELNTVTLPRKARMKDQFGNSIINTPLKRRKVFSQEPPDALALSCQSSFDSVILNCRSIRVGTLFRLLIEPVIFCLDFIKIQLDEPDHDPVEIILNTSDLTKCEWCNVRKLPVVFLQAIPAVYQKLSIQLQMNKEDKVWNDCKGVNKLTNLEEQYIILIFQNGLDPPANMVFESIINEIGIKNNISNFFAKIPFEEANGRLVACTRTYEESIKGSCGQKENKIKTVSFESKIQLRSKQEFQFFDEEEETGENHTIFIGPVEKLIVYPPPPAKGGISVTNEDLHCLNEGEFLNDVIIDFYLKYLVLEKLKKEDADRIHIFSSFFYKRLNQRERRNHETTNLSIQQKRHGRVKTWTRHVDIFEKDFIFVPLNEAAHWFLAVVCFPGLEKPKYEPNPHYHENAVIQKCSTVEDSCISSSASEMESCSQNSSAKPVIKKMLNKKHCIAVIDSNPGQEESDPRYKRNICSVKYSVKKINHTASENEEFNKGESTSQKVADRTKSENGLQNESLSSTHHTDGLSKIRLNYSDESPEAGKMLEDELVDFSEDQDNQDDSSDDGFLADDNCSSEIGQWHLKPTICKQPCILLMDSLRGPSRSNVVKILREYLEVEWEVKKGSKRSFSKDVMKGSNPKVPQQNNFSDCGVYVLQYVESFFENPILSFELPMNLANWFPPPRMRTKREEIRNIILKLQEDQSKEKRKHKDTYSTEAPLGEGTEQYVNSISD

[9] = biological target: T7, Sentrin-specific protease 8 (Homo sapiens, UniProt Q96LD8); type: functional;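 note: luminescence read-out of SENP8 inhibition, dose-response confirmation following an ultra-high-throughput screen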
T7 sequence (Q96LD8 whole entry): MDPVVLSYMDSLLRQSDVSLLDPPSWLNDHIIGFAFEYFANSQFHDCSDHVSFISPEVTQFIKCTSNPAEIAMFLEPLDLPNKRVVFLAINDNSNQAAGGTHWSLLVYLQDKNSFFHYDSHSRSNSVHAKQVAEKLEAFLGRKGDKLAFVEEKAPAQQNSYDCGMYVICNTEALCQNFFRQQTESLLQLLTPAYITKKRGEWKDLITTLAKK

[10] = biological target: Mitochondrial peptide methionine sulfoxide reductase (Bos taurus, UniProt P54149); assay: Absorbance-based biochemical high throughput dose response assay for activators of Methionine sulfoxide reductase A (MsrA).; type: functional
[11] = biological target: DNA dC->dU-editing enzyme APOBEC-3A (Homo sapiens, UniProt P31941); assay: Dose Response confirmation of small molecule APOBEC3A DNA Deaminase Inhibitors via a fluorescence-based single-stranded DNA deaminase assay. [Related pubchem assays (depositor defined):AID493011, AID493024]; type: functional
[12] = biological target: DNA dC->dU-editing enzyme APOBEC-3G (Homo sapiens, UniProt Q9HC16); type: functional;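 note: Dose-response counterscreen measuring inhibition of APOBEC3G DNA deaminase activity, run while confirming APOBEC3A inhibitors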
[13] = biological target: Melanin-concentrating hormone receptor 1 (Homo sapiens, UniProt Q99705); assay: Late-stage fluorescence-based counterscreen for antagonists of the G-protein coupled receptor 7 (GPR7): cell-based dose response assay to identify antagonists of the melanin-concentrating hormone receptor 1 (MCHR1) Set 6.; type: functional
[14] = biological target: T8, Neuropeptides B/W receptor type 1 (Homo sapiens, UniProt P48145); assay: GPR7 antagonist potency, late-stage follow-up, cell-based, fluorescence, dose response, set 6 (AID 588583); type: functional
T8 sequence (P48145 whole entry): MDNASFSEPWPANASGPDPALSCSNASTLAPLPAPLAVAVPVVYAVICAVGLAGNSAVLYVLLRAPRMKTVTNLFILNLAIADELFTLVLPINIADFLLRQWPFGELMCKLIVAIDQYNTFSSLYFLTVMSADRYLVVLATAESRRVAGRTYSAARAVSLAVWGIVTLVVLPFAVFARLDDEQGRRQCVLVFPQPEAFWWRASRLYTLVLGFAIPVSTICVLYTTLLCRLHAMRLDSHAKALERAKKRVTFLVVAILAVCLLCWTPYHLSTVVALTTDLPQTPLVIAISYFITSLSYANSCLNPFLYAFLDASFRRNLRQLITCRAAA

[15] = AlphaScreen signal interference compounds, dose response, artefact control for ARNT-TACC3 interaction inhibitor project, biochemical, luminescence, cherry-pick (AID 651705); type: functional;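 note: AlphaScreen bead proximity signal that flags compounds interfering with the detection technology; potency reflects signal decrease which marks the compound as an assay artifact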
[16] = NIH-3T3 fibroblast cytotoxicity, dose response, cytotoxicity control for antifungal single agent project, cell-based, Alamar Blue, dry powder (AID 602188); type: functional

Chain of Melanin-concentrating hormone receptor 1 (Q99705 whole entry): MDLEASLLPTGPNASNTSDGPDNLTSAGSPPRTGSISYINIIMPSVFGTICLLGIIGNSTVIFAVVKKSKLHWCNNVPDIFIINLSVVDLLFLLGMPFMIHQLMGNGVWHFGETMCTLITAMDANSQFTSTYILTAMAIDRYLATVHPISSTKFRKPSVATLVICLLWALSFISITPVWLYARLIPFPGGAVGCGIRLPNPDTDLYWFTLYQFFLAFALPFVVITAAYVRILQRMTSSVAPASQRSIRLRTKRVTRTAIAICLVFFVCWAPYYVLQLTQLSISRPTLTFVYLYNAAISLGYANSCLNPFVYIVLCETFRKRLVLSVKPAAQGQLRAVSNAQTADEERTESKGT
Chain of Beta-2 adrenergic receptor (P07550 whole entry): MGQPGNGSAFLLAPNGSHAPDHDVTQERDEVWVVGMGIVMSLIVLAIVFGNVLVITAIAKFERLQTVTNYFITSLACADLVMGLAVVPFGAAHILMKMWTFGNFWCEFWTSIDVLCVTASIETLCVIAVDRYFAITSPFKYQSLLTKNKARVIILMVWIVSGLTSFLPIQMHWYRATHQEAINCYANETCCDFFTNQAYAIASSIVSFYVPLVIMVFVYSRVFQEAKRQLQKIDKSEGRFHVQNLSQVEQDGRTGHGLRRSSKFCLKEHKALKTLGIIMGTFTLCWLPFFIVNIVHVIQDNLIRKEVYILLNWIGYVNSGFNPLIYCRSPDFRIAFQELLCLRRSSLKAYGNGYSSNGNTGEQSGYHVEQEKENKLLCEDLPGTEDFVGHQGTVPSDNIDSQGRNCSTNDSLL
Chain of Trypsin (P00761 whole entry): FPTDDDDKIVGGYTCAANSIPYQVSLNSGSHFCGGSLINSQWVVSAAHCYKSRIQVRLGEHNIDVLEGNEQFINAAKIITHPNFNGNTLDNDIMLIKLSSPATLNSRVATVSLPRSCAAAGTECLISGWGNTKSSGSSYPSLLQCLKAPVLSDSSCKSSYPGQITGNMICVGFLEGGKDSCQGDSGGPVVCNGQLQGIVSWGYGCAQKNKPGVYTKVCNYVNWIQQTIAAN
Chain of Mitochondrial peptide methionine sulfoxide reductase (P54149 whole entry): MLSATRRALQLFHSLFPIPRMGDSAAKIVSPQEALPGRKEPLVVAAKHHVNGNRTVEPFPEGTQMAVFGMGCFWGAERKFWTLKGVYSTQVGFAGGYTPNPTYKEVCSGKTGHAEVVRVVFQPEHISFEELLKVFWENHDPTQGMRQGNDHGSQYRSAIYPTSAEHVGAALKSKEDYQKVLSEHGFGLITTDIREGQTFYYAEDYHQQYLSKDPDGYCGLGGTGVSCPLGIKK
Chain of DNA (cytosine-5)-methyltransferase 1 (P26358 whole entry): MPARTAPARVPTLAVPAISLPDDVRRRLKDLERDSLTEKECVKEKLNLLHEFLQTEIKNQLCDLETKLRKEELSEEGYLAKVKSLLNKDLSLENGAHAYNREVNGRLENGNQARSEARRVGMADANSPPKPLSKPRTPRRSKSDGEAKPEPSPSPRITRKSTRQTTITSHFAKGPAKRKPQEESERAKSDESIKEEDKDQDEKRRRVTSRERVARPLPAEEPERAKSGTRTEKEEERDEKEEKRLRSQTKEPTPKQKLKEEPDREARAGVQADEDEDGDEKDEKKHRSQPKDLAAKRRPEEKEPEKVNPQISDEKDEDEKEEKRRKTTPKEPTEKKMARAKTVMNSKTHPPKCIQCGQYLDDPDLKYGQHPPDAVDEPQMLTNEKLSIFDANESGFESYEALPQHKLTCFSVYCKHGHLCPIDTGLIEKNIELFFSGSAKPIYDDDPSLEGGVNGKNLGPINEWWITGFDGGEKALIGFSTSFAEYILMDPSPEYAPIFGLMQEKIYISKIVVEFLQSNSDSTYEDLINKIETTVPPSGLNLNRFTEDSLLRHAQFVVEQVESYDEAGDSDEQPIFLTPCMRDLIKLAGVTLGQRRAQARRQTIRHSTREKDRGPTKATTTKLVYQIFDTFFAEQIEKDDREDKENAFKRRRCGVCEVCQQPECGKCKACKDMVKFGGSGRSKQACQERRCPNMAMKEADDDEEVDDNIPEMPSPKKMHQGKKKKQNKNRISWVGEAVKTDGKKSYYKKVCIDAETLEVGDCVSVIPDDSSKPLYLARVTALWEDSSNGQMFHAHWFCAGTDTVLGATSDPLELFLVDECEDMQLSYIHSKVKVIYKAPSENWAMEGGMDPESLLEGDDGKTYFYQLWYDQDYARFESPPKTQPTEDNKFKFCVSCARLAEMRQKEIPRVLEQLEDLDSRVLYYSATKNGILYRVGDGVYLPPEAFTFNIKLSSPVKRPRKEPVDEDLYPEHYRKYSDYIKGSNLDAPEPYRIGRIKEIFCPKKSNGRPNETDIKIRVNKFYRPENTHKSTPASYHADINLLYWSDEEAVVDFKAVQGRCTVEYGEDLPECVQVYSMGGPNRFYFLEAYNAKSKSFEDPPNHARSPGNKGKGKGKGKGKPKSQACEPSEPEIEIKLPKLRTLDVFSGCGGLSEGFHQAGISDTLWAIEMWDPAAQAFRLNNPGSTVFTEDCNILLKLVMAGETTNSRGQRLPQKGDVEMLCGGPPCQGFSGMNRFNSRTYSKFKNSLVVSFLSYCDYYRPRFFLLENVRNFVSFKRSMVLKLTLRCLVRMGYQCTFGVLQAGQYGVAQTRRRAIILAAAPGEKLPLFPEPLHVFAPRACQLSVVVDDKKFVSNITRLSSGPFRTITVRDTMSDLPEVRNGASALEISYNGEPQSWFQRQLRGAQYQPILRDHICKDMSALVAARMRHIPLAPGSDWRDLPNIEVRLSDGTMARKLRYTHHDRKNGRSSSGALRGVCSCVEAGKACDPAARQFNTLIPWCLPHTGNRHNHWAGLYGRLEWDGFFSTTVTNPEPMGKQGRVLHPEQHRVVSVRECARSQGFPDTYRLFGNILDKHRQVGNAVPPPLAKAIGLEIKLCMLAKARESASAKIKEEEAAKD
Chain of DNA dC->dU-editing enzyme APOBEC-3A (P31941 whole entry): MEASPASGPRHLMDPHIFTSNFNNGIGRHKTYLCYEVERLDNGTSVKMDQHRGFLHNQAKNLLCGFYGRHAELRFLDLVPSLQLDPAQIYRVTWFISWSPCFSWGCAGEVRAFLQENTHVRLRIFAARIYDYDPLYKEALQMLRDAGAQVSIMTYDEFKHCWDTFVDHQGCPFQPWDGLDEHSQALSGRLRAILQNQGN
Chain of DNA dC->dU-editing enzyme APOBEC-3G (Q9HC16 whole entry): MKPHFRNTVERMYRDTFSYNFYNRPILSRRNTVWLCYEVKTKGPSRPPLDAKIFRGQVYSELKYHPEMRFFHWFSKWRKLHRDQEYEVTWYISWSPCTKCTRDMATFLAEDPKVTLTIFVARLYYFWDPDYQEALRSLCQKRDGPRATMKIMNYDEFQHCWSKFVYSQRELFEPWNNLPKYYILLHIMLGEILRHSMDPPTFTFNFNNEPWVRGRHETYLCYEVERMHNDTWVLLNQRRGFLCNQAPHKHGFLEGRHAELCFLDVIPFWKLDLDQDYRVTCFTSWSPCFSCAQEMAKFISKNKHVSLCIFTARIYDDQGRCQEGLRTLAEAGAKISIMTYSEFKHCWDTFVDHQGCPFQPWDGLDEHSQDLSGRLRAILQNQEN
Chain of Adenosylmethionine-8-amino-7-oxononanoate aminotransferase (P9WQ81 whole entry): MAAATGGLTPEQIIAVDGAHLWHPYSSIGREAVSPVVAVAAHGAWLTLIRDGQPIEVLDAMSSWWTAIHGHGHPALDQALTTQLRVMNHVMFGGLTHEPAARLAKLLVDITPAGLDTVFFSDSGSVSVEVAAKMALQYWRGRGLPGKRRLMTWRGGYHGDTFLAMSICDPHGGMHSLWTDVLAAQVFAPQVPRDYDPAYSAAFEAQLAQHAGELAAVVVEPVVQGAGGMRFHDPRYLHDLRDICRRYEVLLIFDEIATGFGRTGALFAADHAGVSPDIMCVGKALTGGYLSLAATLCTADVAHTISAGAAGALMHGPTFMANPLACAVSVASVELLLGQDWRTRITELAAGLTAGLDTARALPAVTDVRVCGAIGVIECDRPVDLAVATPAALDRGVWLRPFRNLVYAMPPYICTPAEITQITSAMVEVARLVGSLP

O=C(O)C(c1ccccc1)N1C(=O)/C(=C\c2ccc(-c3ccc(Br)cc3)o2)SC1=S (stereo unspecified)
EC50 [1]: 1.81 µM (active) | EC50 (Streptokinase A): 1.55 µM (active) | EC50 (Streptococcus): 2.51 µM (active) | IC50 [2]: 4.08 µM (active)

CCOc1ccc(C(=O)Nc2cc3c(cc2N2CCCC2)n(CC)c(=O)n3CC)cc1OCC
AC50 [3]: 6.03 µM (active)

CC(C)OC(=O)c1c(N)n(CCCN2CCOCC2)c2nc3ccccc3nc12
AC50 (Trypsin): 6.98 µM (active) | AC50 (CAAX prenyl protease 2 [4]): 11.9 µM (active) | AC50 (CAAX prenyl protease 2 [5]): 4.27 µM (active)

COC(=O)c1cc([N+](=O)[O-])c(-n2cncn2)c([N+](=O)[O-])c1
EC50 [6]: 19 µM (inactive)

O=C(COC(=O)c1ccc([N+](=O)[O-])s1)NCc1ccc(F)cc1
IC50 (Caspase-3): 9.32 µM (active) | IC50 [7]: 6.18 µM (active) | IC50 [8]: 3.68 µM (active) | IC50 [9]: 3.72 µM (active) | EC50 [10]: 27.2 µM (inactive)

CCn1c(SCC(=O)N2CCCC2)nnc1-c1ccc(N)cc1
IC50 [11]: 2.31 µM (active) | IC50 [12]: 2.75 µM (active) | EC50 [6]: 2.07 µM (active)

NC(=O)N1N=C2/C(=C/c3ccccc3)CCCC2C1c1ccccc1 (stereo unspecified)
AC50 (Trypsin): 10.8 µM (active) | AC50 (CAAX prenyl protease 2 [4]): 9.14 µM (active) | AC50 (CAAX prenyl protease 2 [5]): 12.1 µM (active)

Cc1ccc(C(C#N)c2c(Br)cnn(Cc3cccc4ccccc34)c2=O)cc1 (stereo unspecified)
IC50 [13]: 0.219 µM (active) | IC50 [14]: 0.219 µM (active)

COc1ccc(C(C#N)c2c(Br)cnn(Cc3cccc4ccccc34)c2=O)cc1 (stereo unspecified)
IC50 [13]: 0.131 µM (active) | IC50 [14]: 0.131 µM (active)

Oc1c(/C=N/CCCn2ccnc2)c(-c2ccccc2)nn1-c1nc2ccccc2s1
AC50 [15]: 99.5 µM (active)

Cc1ccc(C(=O)Nc2nc(-c3ccccn3)cs2)cc1
AC50 [16]: 9.7 µM (active)
